According to PubChem BioAssay AID1259407 (Chemical Carcinogenesis Research Information System (CCRIS), 2018):
Active and inactive are the calls of the source. The rule behind the calls is not given here.

System: CCRIS mutagenicity, Ames/micronucleus/aberration tests
Experiment: CCRIS mutagenicity studies
[1] = Test System: AMES SALMONELLA TYPHIMURIUM, Strain/Indicator: TA98, Metabolic Activation: NONE, Method: PREINCUBATION
[2] = Test System: AMES SALMONELLA TYPHIMURIUM, Strain/Indicator: TA98, Metabolic Activation: NONE, Method: STANDARD PLATE
[3] = Test System: AMES SALMONELLA TYPHIMURIUM, Strain/Indicator: TA98, Metabolic Activation: RAT, LIVER, S-9, AROCLOR 1254, Method: PREINCUBATION
[4] = Test System: AMES SALMONELLA TYPHIMURIUM, Strain/Indicator: TA98, Metabolic Activation: RAT, LIVER, S-9, AROCLOR 1254, Method: STANDARD PLATE
[5] = Test System: AMES SALMONELLA TYPHIMURIUM, Strain/Indicator: TA98, Metabolic Activation: RAT, LIVER, S-9, PCB, Method: PREINCUBATION
[6] = Test System: AMES SALMONELLA TYPHIMURIUM, Strain/Indicator: TA100, Metabolic Activation: NONE, Method: PREINCUBATION
[7] = Test System: AMES SALMONELLA TYPHIMURIUM, Strain/Indicator: TA100, Metabolic Activation: NONE, Method: STANDARD PLATE
[8] = Test System: AMES SALMONELLA TYPHIMURIUM, Strain/Indicator: TA100, Metabolic Activation: RAT, LIVER, S-9, AROCLOR 1254, Method: PREINCUBATION
[9] = Test System: AMES SALMONELLA TYPHIMURIUM, Strain/Indicator: TA100, Metabolic Activation: RAT, LIVER, S-9, AROCLOR 1254, Method: STANDARD PLATE
[10] = Test System: AMES SALMONELLA TYPHIMURIUM, Strain/Indicator: TA100, Metabolic Activation: RAT, LIVER, S-9, PCB, Method: PREINCUBATION
[11] = Test System: AMES SALMONELLA TYPHIMURIUM, Strain/Indicator: TA102, Metabolic Activation: NONE, Method: PREINCUBATION
[12] = Test System: AMES SALMONELLA TYPHIMURIUM, Strain/Indicator: TA102, Metabolic Activation: RAT, LIVER, S-9, AROCLOR 1254, Method: PREINCUBATION
[13] = Test System: AMES SALMONELLA TYPHIMURIUM, Strain/Indicator: TA1535, Metabolic Activation: NONE, Method: STANDARD PLATE
[14] = Test System: AMES SALMONELLA TYPHIMURIUM, Strain/Indicator: TA1535, Metabolic Activation: RAT, LIVER, S-9, AROCLOR 1254, Method: STANDARD PLATE
[15] = Test System: AMES SALMONELLA TYPHIMURIUM, Strain/Indicator: TA1537, Metabolic Activation: NONE, Method: STANDARD PLATE
[16] = Test System: AMES SALMONELLA TYPHIMURIUM, Strain/Indicator: TA1537, Metabolic Activation: RAT, LIVER, S-9, AROCLOR 1254, Method: STANDARD PLATE
[17] = Test System: AMES SALMONELLA TYPHIMURIUM, Strain/Indicator: TA1538, Metabolic Activation: NONE, Method: STANDARD PLATE
[18] = Test System: AMES SALMONELLA TYPHIMURIUM, Strain/Indicator: TA1538, Metabolic Activation: RAT, LIVER, S-9, AROCLOR 1254, Method: STANDARD PLATE
[19] = Test System: AMES SALMONELLA TYPHIMURIUM, Strain/Indicator: TA97, Metabolic Activation: NONE, Method: PREINCUBATION

Measured: mutagenic call

c1cnccn1
inactive: Test System: AMES SALMONELLA TYPHIMURIUM, Strain/Indicator: TA98, Metabolic Activation: HAMSTER, LIVER, S-9, AROCLOR 1254, Method: STANDARD PLATE inactive; negative | [1] inactive; negative | [2] inactive; negative | [3] inactive; negative | [4] inactive; negative | [5] inactive; negative | Test System: AMES SALMONELLA TYPHIMURIUM, Strain/Indicator: TA100, Metabolic Activation: HAMSTER, LIVER, S-9, AROCLOR 1254, Method: STANDARD PLATE inactive; negative | [6] inactive; negative | [7] inactive; negative | [8] inactive; negative | [9] inactive; negative | [10] inactive; negative | [11] inactive; negative | [12] inactive; negative | Test System: AMES SALMONELLA TYPHIMURIUM, Strain/Indicator: TA1535, Metabolic Activation: HAMSTER, LIVER, S-9, AROCLOR 1254, Method: STANDARD PLATE inactive; negative | [13] inactive; negative | [14] inactive; negative | Test System: AMES SALMONELLA TYPHIMURIUM, Strain/Indicator: TA1537, Metabolic Activation: HAMSTER, LIVER, S-9, AROCLOR 1254, Method: STANDARD PLATE inactive; negative | [15] inactive; negative | [16] inactive; negative | Test System: AMES SALMONELLA TYPHIMURIUM, Strain/Indicator: TA1538, Metabolic Activation: HAMSTER, LIVER, S-9, AROCLOR 1254, Method: STANDARD PLATE inactive; negative | [17] inactive; negative | [18] inactive; negative | Test System: MOUSE LYMPHOMA, Strain/Indicator: L5178Y (TK+/TK-), Metabolic Activation: NONE, Method: SUSPENSION/PLATE inactive; negative. reevaluation of results: negative | Test System: MOUSE LYMPHOMA, Strain/Indicator: L5178Y (TK+/TK-), Metabolic Activation: RAT, LIVER, S-9, AROCLOR 1254, Method: SUSPENSION/PLATE inactive; negative. reevaluation of results: negative

O=C(CO)N(O)c1ccc(Cl)cc1
inactive: [2] inactive; negative | [4] inactive; negative | [7] inactive; negative | [9] inactive; negative

C=Cc1ccc(O)c(C=C)c1
inactive: [2] inactive; negative | Test System: AMES SALMONELLA TYPHIMURIUM, Strain/Indicator: TA98, Metabolic Activation: S-9, Method: STANDARD PLATE inactive; negative | [7] inactive; negative | Test System: AMES SALMONELLA TYPHIMURIUM, Strain/Indicator: TA100, Metabolic Activation: S-9, Method: STANDARD PLATE inactive; negative

O=PO.O=PO.[Mn+2]
inactive: [2] inactive; negative | [4] inactive; negative | [7] inactive; negative | [9] inactive; negative | [13] inactive; negative | [14] inactive; negative | [15] inactive; negative | [16] inactive; negative | [17] inactive; negative | [18] inactive; negative | Test System: E. COLI, Strain/Indicator: WP2, Metabolic Activation: NONE, Method: STANDARD PLATE inactive; negative | Test System: E. COLI, Strain/Indicator: WP2, Metabolic Activation: RAT, LIVER, S-9, AROCLOR 1254, Method: STANDARD PLATE inactive; negative

O=[N+]([O-])c1c2ccccc2c([N+](=O)[O-])c2ccccc12
inactive: [2] inactive; negative

CC(=C/C=C/C(C)=C/C=C/C=C(C)/C=C/C=C(C)/C=C/C(=O)O)/C=C/C(=O)O
inactive: [19] inactive; negative | Test System: AMES SALMONELLA TYPHIMURIUM, Strain/Indicator: TA97, Metabolic Activation: S-9, Method: PREINCUBATION inactive; negative | [11] inactive; negative | Test System: AMES SALMONELLA TYPHIMURIUM, Strain/Indicator: TA102, Metabolic Activation: S-9, Method: PREINCUBATION inactive; negative

Nc1nc2c(ncn2[C@@H]2O[C@H](COP(=O)(O)O)[C@@H](O)[C@H]2O)c(=O)[nH]1
inactive: [19] inactive; negative | Test System: AMES SALMONELLA TYPHIMURIUM, Strain/Indicator: TA97, Metabolic Activation: RAT, LIVER, S-9, AROCLOR 1254, Method: PREINCUBATION inactive; negative | [11] inactive; negative | [12] inactive; negative

Cc1cnccn1
inactive: [1] inactive; negative | [3] inactive; negative | [6] inactive; negative | [8] inactive; negative | [11] inactive; negative | [12] inactive; negative

CN(C)C(=N)N(C)C
inactive: [1] inactive; negative | [5] inactive; negative | [6] inactive; negative | [10] inactive; negative

CCCCC(CC)COP(OCC(CC)CCCC)OCC(CC)CCCC (stereo unspecified)
inactive: Test System: AMES SALMONELLA TYPHIMURIUM, Strain/Indicator: TA98, Metabolic Activation: HAMSTER, LIVER, S-9, AROCLOR 1254 (10%), Method: PREINCUBATION inactive; negative | [1] inactive; negative | Test System: AMES SALMONELLA TYPHIMURIUM, Strain/Indicator: TA98, Metabolic Activation: RAT, LIVER, S-9, AROCLOR 1254 (10%), Method: PREINCUBATION inactive; negative | Test System: AMES SALMONELLA TYPHIMURIUM, Strain/Indicator: TA100, Metabolic Activation: HAMSTER, LIVER, S-9, AROCLOR 1254 (10%), Method: PREINCUBATION inactive; negative | [6] inactive; negative | Test System: AMES SALMONELLA TYPHIMURIUM, Strain/Indicator: TA100, Metabolic Activation: RAT, LIVER, S-9, AROCLOR 1254 (10%), Method: PREINCUBATION inactive; negative | Test System: AMES SALMONELLA TYPHIMURIUM, Strain/Indicator: TA1535, Metabolic Activation: HAMSTER, LIVER, S-9, AROCLOR 1254 (10%), Method: PREINCUBATION inactive; negative | Test System: AMES SALMONELLA TYPHIMURIUM, Strain/Indicator: TA1535, Metabolic Activation: NONE, Method: PREINCUBATION inactive; negative | Test System: AMES SALMONELLA TYPHIMURIUM, Strain/Indicator: TA1535, Metabolic Activation: RAT, LIVER, S-9, AROCLOR 1254 (10%), Method: PREINCUBATION inactive; negative | Test System: AMES SALMONELLA TYPHIMURIUM, Strain/Indicator: TA1537, Metabolic Activation: HAMSTER, LIVER, S-9, AROCLOR 1254 (10%), Method: PREINCUBATION inactive; negative | Test System: AMES SALMONELLA TYPHIMURIUM, Strain/Indicator: TA1537, Metabolic Activation: NONE, Method: PREINCUBATION inactive; negative | Test System: AMES SALMONELLA TYPHIMURIUM, Strain/Indicator: TA1537, Metabolic Activation: RAT, LIVER, S-9, AROCLOR 1254 (10%), Method: PREINCUBATION inactive; negative
